The target of test [1] is T1, cellular IDO1 in HeLa cells (Homo sapiens, UniProt P14902).
T1 construct: endogenous in cells; host or cells: HeLa cells (American Type Tissue Culture Collection), induced with human recombinant IFN-γ
In words: HeLa cell-based IDO1 Kyn (kynurenine) production assay. The conditions noted are these: IFN-γ 100 ng/mL, 48 hours. The procedure:
HeLa Cell-Based IDO1 Kyn (Kynurenine) Production Assay:
The inhibitory activity of IDO1 inhibitors is determined by using a colorimetric reaction to measure Kyn generated from L-Trp (L-Tryptophon) oxidation by cellular IDO1 in HeLa cells after induction of IDO1 by IFN-γ.
Hela cells were obtained from the American Type Tissue Culture Collection and recovered in 10% FBS-containing phenol red-free DMEM medium supplemented with 0.4 mM L-Trp. Cells were plated onto a 96-well plate (100 μl/well) at 8000 cells per well. Human recombinant IFN-γ (8901SC, CST) was added to cells (final concentration 100 ng/mL) to stimulate endogenous IDO1. Compounds at different concentrations diluted in dimethylsulfoxide (DMSO) were added simultaneously with IFN-γ. Cells were kept at 37° C. in a humidified incubator supplied with 5% CO2. After 48 hours of incubation, 100 μl supernatant from each well was removed to a new plate. The protein in the medium was precipitated with the addition of 8 μl 6N trichloroacetic acid. The plate was incubated at 60° C. for 45 min and then centrifugation at 2500 rpm for 10 min to remove sediments. 80 μl supernatants were carefully removed to a new clean plate and added with an equal volume of 2% 4-(Dimethylamino) benzaldehyde (D2004, sigma) dissolved in glacial acetic acid. The absorbance at 480 nm wavelength derived from Kyn was measured using a FULOstar OMEGA plate reader (BMG LABTECH). The IC50 for each compound was derived from fitting the dose-response data to the four-parameter logistic model by using Graphpad Prism software.

For a further test, the target named is T2, Recombinant IDO1 (Homo sapiens, UniProt P14902).
T2 construct: His tag (N); made in house; host or cells: E. coli
T2 sequence (P14902 whole entry): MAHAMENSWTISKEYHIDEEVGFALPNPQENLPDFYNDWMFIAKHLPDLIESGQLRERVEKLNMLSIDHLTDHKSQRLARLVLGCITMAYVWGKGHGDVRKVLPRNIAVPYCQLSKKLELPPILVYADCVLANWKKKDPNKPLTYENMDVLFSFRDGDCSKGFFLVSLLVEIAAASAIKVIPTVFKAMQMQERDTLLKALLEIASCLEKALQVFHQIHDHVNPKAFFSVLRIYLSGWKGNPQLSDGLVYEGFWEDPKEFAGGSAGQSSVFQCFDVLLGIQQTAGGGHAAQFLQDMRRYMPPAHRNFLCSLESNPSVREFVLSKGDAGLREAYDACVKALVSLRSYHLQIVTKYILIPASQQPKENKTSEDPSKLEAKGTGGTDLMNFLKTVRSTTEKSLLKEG
As to the kind of experiment: IDO1 enzymatic assay. The format is biochemical. The conditions noted are these: 50 nM IDO1, 1.3 mM D-tryptophan, read-out: Enzyme IC50 (nM) IDO1. The procedure: Recombinant IDO1 was overexpressed and purified from E. coli cells with an N-terminal His tag. IDO1 enzymatic assay was carried out using a methodology similar to described in the literature (J. Biol. Chem. (1980), 255, 1339-1345.). The reaction mixture contains 50 nM IDO1, 1.3 mM D-tryptophan, 5 mM L-ascorbic acid, 6.25 μM methylene Blue, 0.4 mg/mL catalase and compound (or DMSO) in a buffer containing 50 mM potassium phosphate pH 7.5 and 0.1% BSA. After incubation at 24° C. for 1.5 hours, absorbance of the reaction mixture was continuously read at 321 nm to monitor the formation of N′-formylkynurenine by a FULOstar OMEGA plate reader (BMG LABTECH) for 1 hour. The enzymatic activity was determined by measuring the slope of the linear absorbance increase as a function of time. The IC50s are calculated based on remaining enzyme activity in the presence of increasing concentrations of compounds.

The mark [2] stands for this setting: Table 1, 5-substituted imidazo[1,5-a]pyridines.
[3] abbreviates: Table 2, 8-substituted imidazo[1,5-a]pyridines.

Read-outs that look alike come from different tables or passages of the source.

T1 sequence (P14902 whole entry): as above

Take `O=C(NC1CC1)c1cccc(C(O)c2c(C3CC3)ccc3cncn23)c1` (stereo not shown) [Example A160, N-cyclopropyl-3-((6-cyclopropylimidazo[1,5-a]pyridin-5-yl)(hydroxy)methyl)benzamide]: the EC50 (in general, the concentration giving half of the maximal effect) in test [1] (setting [2]) is 5610 nM. Further, the IC50 (commonly the point on the concentration scale where inhibition reaches its midpoint) on Recombinant IDO1 (setting [2]) turned out to be 81 nM.

The compound `O=C1C2CCC(C2)C1C(O)c1c(C2CC2)ccc2cncn12` (stereo not shown) [Example A161, 3-((6-cyclopropylimidazo[1,5-a]pyridin-5-yl)(hydroxy)methyl)bicyclo[2.2.1]heptan-2-one] yielded an EC50 in test [1] (setting [2]) greater than 10000 nM. Further, the IC50 on Recombinant IDO1 (setting [2]) was found to be 57000 nM.

In the case of `OC(c1c(C2CC2)ccc2cncn12)C1CC2CCC1C2` (stereo not shown) [Example A162, (Bicyclo[2.2.1]heptan-2-yl)(6-cyclopropylimidazo[1,5-a]pyridin-5-yl)methanol], the EC50 in test [1] (setting [2]) worked out at 34 nM. Moreover, on Recombinant IDO1 (setting [2]), the IC50 is 32 nM.

For `O[C@H](c1c(C2CC2)ccc2cncn12)C1CC2CCC1C2` (stereo partly drawn) [Example A162a, (1S)-(bicyclo[2.2.1]heptan-2-yl)(6-cyclopropylimidazo[1,5-a]pyridin-5-yl)methanol], a half-maximal response in test [1] (setting [2]) (EC50) required 8.8 nM. On Recombinant IDO1 (setting [2]), the IC50 is 11 nM.

In turn, `O[C@@H](c1c(C2CC2)ccc2cncn12)C1CC2CCC1C2` (stereo partly drawn) [Example A162b, (1R)-(bicyclo[2.2.1]heptan-2-yl)(6-cyclopropylimidazo[1,5-a]pyridin-5-yl)methanol] displayed an EC50 in test [1] (setting [2]) of 6040 nM. Also, the IC50 at Recombinant IDO1 (setting [2]) turned out to be 1600 nM.

In turn, `OC(CC12CC3CC(CC(C3)C1)C2)c1c(C2CC2)ccc2cncn12` (stereo not shown) [Example A163, 2-(Adamantan-1-yl)-1-(6-cyclopropylimidazo[1,5-a]pyridin-5-yl)ethan-1-ol] returned an EC50 in test [1] (setting [2]) of 102 nM. The IC50 at Recombinant IDO1 (setting [2]) amounted to 94 nM.

For the compound `OC1CCCC(C(O)c2c(C3CC3)ccc3cncn23)C1` (stereo not shown) [Example A164b, 3-((6-Cyclopropylimidazo[1,5-a]pyridin-5-yl)(hydroxy)methyl)cyclohexan-1-ol], in test [1] (setting [2]), a half-maximal effect (EC50) was put at 226 nM. For the same compound, at Recombinant IDO1 (setting [2]), the IC50 was found to be 42 nM.

`OC1CC2CC1CC2C(O)c1c(C2CC2)ccc2cncn12` (stereo not shown) [Example A165, 5-((6-cyclopropylimidazo[1,5-a]pyridin-5-yl)(hydroxy)methyl)bicyclo[2.2.1]heptan-2-ol]: the EC50 in test [1] (setting [2]) turned out to be 1200 nM. The IC50 at Recombinant IDO1 (setting [2]) is 430 nM.

In turn, `OC(CC1CC1)c1cccn2cncc12` (stereo not shown) [Example B007, 2-cyclopropyl-1-(imidazo[1,5-a]pyridin-8-yl)ethan-1-ol] showed an EC50 in test [1] (setting [3]) greater than 10000 nM. In addition, the IC50 at Recombinant IDO1 (setting [3]) was 6600 nM.

In turn, `CC(O)(CC1CCCCC1)c1cccn2cncc12` (stereo not shown) [Example B009, 1-cyclohexyl-2-(imidazo[1,5-a]pyridin-8-yl)propan-2-ol] showed an EC50 in test [1] (setting [3]) greater than 10000 nM. In addition, on Recombinant IDO1 (setting [3]), the IC50 is 18000 nM.

Regarding `OC(CCc1cccn2cncc12)C1CCCCC1` (stereo not shown) [Example B010, 1-Cyclohexyl-3-(imidazo[1,5-a]pyridin-8-yl)propan-1-ol], in test [1] (setting [3]), the EC50 is greater than 10000 nM. Besides, at Recombinant IDO1 (setting [3]), the IC50 stood at 14000 nM.

Take `OC(c1c(C(F)(F)F)ccn2cncc12)C1CCCCC1` (stereo not shown) [Example B111, Cyclohexyl(7-(trifluoromethyl)imidazo[1,5-a]pyridin-8-yl)methanol]: in test [1] (setting [3]), the EC50 was 415 nM. The IC50 on Recombinant IDO1 (setting [3]) is 85 nM.

On to `OC(c1c(C2CC2)ccn2cncc12)C1CCOCC1` (stereo not shown) [Example B112, (7-Cyclopropylimidazo[1,5-a]pyridin-8-yl)(tetrahydro-2H-pyran-4-yl)methanol], for which it took 1680 nM to reach a half-maximal effect in test [1] (setting [3]) (EC50). Besides, the IC50 on Recombinant IDO1 (setting [3]) turned out to be 530 nM.

For `CC(C)(C)c1ccn2cncc2c1C(O)C1CCCCC1` (stereo not shown) [Example B113, (7-(tert-Butyl)imidazo[1,5-a]pyridin-8-yl)(cyclohexyl)methanol], the EC50 in test [1] (setting [3]) came out at 9340 nM. Further, the IC50 on Recombinant IDO1 (setting [3]) was 1300 nM.

As to `OC(c1c(C2CCC2)ccn2cncc12)C1CCCCC1` (stereo not shown) [Example B114, (7-Cyclobutylimidazo[1,5-a]pyridin-8-yl)(cyclohexyl)methanol], the response in test [1] (setting [3]) was half-maximal at 3040 nM (EC50). Also, the IC50 at Recombinant IDO1 (setting [3]) is 630 nM.

`C=CC(O)c1c(C2CC2)ccn2cncc12` (stereo not shown) [Example B115, 1-(7-Cyclopropylimidazo[1,5-a]pyridin-8-yl)prop-2-en-1-ol]: the EC50 in test [1] (setting [3]) was greater than 10000 nM. Moreover, on Recombinant IDO1 (setting [3]), the IC50 was found to be 120 nM.

The compound `OC(c1c(Cl)ccn2cncc12)C1CC=CCC1` (stereo not shown) [Example B116, (7-Chloroimidazo[1,5-a]pyridin-8-yl)(cyclohex-3-en-1-yl)methanol] yielded an EC50 in test [1] (setting [3]) of 4580 nM. Moreover, the IC50 at Recombinant IDO1 (setting [3]) amounted to 61 nM.

`OC(c1c(C2CC2)ccn2cncc12)C1C2CC3CC(C2)CC1C3` (stereo not shown) [Example B117, (Adamantan-2-yl)(7-cyclopropylimidazo[1,5-a]pyridin-8-yl)methanol] gave an EC50 in test [1] (setting [3]) of 401 nM. Besides, the IC50 at Recombinant IDO1 (setting [3]) stood at 1100 nM.

As for `OC(CC12CC3CC(CC(C3)C1)C2)c1c(C2CC2)ccn2cncc12` (stereo not shown) [Example B118, 2-(Adamantan-1-yl)-1-(7-cyclopropylimidazo[1,5-a]pyridin-8-yl)ethan-1-ol], the EC50 in test [1] (setting [3]) came out at 179 nM. In addition, the IC50 on Recombinant IDO1 (setting [3]) worked out at 280 nM.

`CC(C)c1ccn2cncc2c1C(O)C1CCC(O[Si](C)(C)C(C)(C)C)CC1` (stereo not shown) [Example B120, (4-((tert-Butyldimethylsilyl)oxy)cyclohexyl)(7-isopropylimidazo[1,5-a]pyridin-8-yl)methanol]: in test [1] (setting [3]), the EC50 is greater than 10000 nM. Besides, the IC50 on Recombinant IDO1 (setting [3]) is 790 nM.

Take `OC(c1c(C2CC2)ccn2cncc12)C1CC2CCC1C2` (stereo not shown) [Example B122, bicyclo[2.2.1]heptan-2-yl(7-cyclopropylimidazo[1,5-a]pyridin-8-yl)methanol]: in test [1] (setting [3]), the EC50 was found to be 116 nM. For the same compound, the IC50 on Recombinant IDO1 (setting [3]) stood at 53 nM.

On to `O[C@H](c1c(C2CC2)ccn2cncc12)[C@H]1C[C@H]2CC[C@@H]1C2` [Example B122a, (S)-((1R,2S,4S)-bicyclo[2.2.1]heptan-2-yl)(7-cyclopropylimidazo[1,5-a]pyridin-8-yl)methanol], for which the EC50 in test [1] (setting [3]) is 33 nM. In addition, at Recombinant IDO1 (setting [3]), the IC50 was 58 nM.

For `OC(c1c(C2CC2)ccn2cncc12)C1CC2C=CC1CC2` (stereo not shown) [Example B123, Bicyclo[2.2.2]oct-5-en-2-yl(7-cyclopropylimidazo[1,5-a]pyridin-8-yl)methanol], the concentration giving a half-maximal response (EC50) in test [1] (setting [3]) worked out at 754 nM. In addition, on Recombinant IDO1 (setting [3]), the IC50 stood at 260 nM.

In test [1] (setting [3]), `OC(c1c(C2CC2)ccn2cncc12)C1CC2CCC1CC2` (stereo not shown) [Example B124, Bicyclo[2.2.2]octan-2-yl(7-cyclopropylimidazo[1,5-a]pyridin-8-yl)methanol] displayed an EC50 of 376 nM. Further, the IC50 at Recombinant IDO1 (setting [3]) came to 440 nM.

Regarding `O=C(NC1CC1)c1cccc(C(O)c2c(C3CC3)ccn3cncc23)c1` (stereo not shown) [Example B125, N-cyclopropyl-3-((7-cyclopropylimidazo[1,5-a]pyridin-8-yl)(hydroxy)methyl)benzamide], the EC50 in test [1] (setting [3]) was found to be 8500 nM. On Recombinant IDO1 (setting [3]), the IC50 was found to be 170 nM.

As for `O=C(OCc1ccccc1)N1CCCC(C(O)c2c(C3CC3)ccn3cncc23)C1` (stereo not shown) [Example B129, Benzyl-3-((7-cyclopropylimidazo[1,5-a]pyridin-8-yl)(hydroxy)methyl) piperidine-1-carboxylate], the EC50 in test [1] (setting [3]) was greater than 10000 nM. Moreover, the IC50 at Recombinant IDO1 (setting [3]) stood at 310 nM.

`CC(C)(C)OC(=O)NCC(=O)N1CCCC(C(O)c2c(C3CC3)ccn3cncc23)C1` (stereo not shown) [Example B131, tert-Butyl (2-(3-((7-cyclopropylimidazo[1,5-a]pyridin-8-yl)(hydroxy)methyl)piperidin-1-yl)-2-oxoethyl) carbamate] displayed an EC50 in test [1] (setting [3]) greater than 10000 nM. For the same compound, at Recombinant IDO1 (setting [3]), the IC50 stood at 1700 nM.

The compound `NCC(=O)N1CCCC(C(O)c2c(C3CC3)ccn3cncc23)C1` (stereo not shown) [Example B132, 2-Amino-1-(3-((7-cyclopropylimidazo[1,5-a]pyridin-8-yl)(hydroxy)methyl)piperidin-1-yl)ethan-1-one] showed an EC50 in test [1] (setting [3]) greater than 10000 nM. Also, the IC50 at Recombinant IDO1 (setting [3]) was found to be 13000 nM.

In turn, `O=C(c1ccccc1)N1CCCC(C(O)c2c(C3CC3)ccn3cncc23)C1` (stereo not shown) [Example B134, (3-((7-Cyclopropylimidazo[1,5-a]pyridin-8-yl)(hydroxy)methyl)piperidin-1-yl)(phenyl) methanone] yielded a concentration giving a half-maximal response (EC50) in test [1] (setting [3]) greater than 10000 nM. In addition, the IC50 at Recombinant IDO1 (setting [3]) is 2000 nM.

The values above are taken from patent US10280163B2 (BeiGene, Ltd., priority 2015, dated 2019).
